Measured values: patent US20190010182A1, “SALT OF (SS)-ADENOSYL METHIONINE WITH INOSITOL HEXAPHOSPHATE, AND PROCESS FOR THE PREPARATION THEREOF” (GNOSIS S.p.A., priority 2017, published 2019)

Columns and labels:
[1] = stability test, storage at +25° C. in a thermostatic stove up to 6 months; assay type: physicochemical; conditions: FIG. 4
Protocol: FIG. 3 depicts SAMe ion content analysis in a product stability test, storing samples at 25° C. in a thermostatic stove up to 6 months. The test measured the SAMe ion content (as percent loss of SAMe ion) in the (SS)SAMe inositol hexaphosphate salt (samples AT1003 and AT1005), the commercial SAMe 1,4-butanedisulphonate salt (sample SD4Test1), the commercial SAMe Pates salt (S1S1057B) and the SAMe-metal-phytate complex obtained according to EP1896489 (sample 04B17DS).
FIG. 4 further depicts SAMe ion content analysis in a product stability test for diastereomeric purity, storing samples at 25° C. in a thermostatic stove up to 6 months. The test measured the (SS)SAMe diastereoisomer ion content (as percent loss of (SS)SAMe diastereomer) in the (SS)SAMe inositol hexaphosphate salt (samples AT1003 and AT1005), and also in the commercial SAMe 1,4-butanedisulphonate salt (sample SD4Test1), the commercial SAMe Pates salt (S1S1057B) and the SAMe-metal-phytate complex obtained according to EP1896489 (sample 04B17DS).
Some samples of the products obtained as described in the previous examples are subjected to stability tests, storing them at +25° C., in a thermostatic stove. […]

[2] = Pharmacokinetic profile in the rat (SAMe blood levels, AUC); assay type: in vivo, Sprague Dawley rats; conditions: by cannula in water, 134 mg/kg and 95 mg/kg, compared with SAMe Pates at equal SAMe ion dose
Protocol: 70 Sprague Dawley rats (35 male and 35 female), aged 7-9 weeks and weighing 176-200 g, were acclimatized in a cage for two weeks before the start of the treatment, maintained at +22° C. and 55% relative humidity. The rats were fed on 4RF 21 (Mucedola) feed, and weighed before the beginning and at the end of the test. At the time of treatment, 32 animals per group (16 males and 16 females) were selected from those with the most similar weights, and assigned to the two treatments.
The product was administered by cannula, dissolved in water, at two dose levels, namely 134 mg/kg and 95 mg/kg. The rats were fasted overnight before administration and for a further two hours after administration. The two equimolar doses guaranteed an equal intake of SAMe ion.
The blood levels of SAMe were assayed by taking a sample from the tail vein at fixed intervals, at times 0 (pre-administration), 0.5, 1, 1.5, 2, 4, 8 and 24 hours after administration. The blood samples were centrifuged after addition of EDTA to separate the plasma from the cell fraction. The plasma was then analysed by HPLC according to the method reported in Wise, Fullerton J. Liq. Chromatogr. […]
The SAMe plasma concentration values are also used to determine, according to the Area Under Curve (AUC) calculation, the total quantity of active ingredient absorbed, obtaining the values set out in FIG. 2.

[3] = accelerated stability test, thermostatic stove at +55° C., 5 days; assay type: physicochemical
Protocol: The product obtained as described in Example 6 (comprising SAMe and phytic acid) and a sample of SAMe inositol hexaphosphate obtained as described in Example 5 are subjected to an accelerated stability test, incubated in a thermostatic stove at +55° C., and the analyses are repeated after 5 days.
The samples are analysed for the following values:
SAMe ion content (total of all enantiomers) determined by HPLC and expressed as % by weight enantiomeric purity, determined by HPLC and expressed as % of (SS) isomer active ingredient content, calculated by multiplying the previous two values and expressed as % by weight of (SS)SAMe overall purity, determined by HPLC as SAMe area/total area of chromatogram, expressed as area %. The figure comprises the values of all known degradation impurities.

C[S@@+](CC[C@H](N)C(=O)[O-])C[C@H]1O[C@@H](n2cnc3c(N)ncnc32)[C@H](O)[C@@H]1O.O=P(O)(O)O[C@H]1[C@H](OP(=O)(O)O)[C@@H](OP(=O)(O)O)[C@H](OP(=O)(O)O)[C@@H](OP(=O)(O)O)[C@H]1OP(=O)(O)O [AT1003, (SS)-adenosyl methionine with myo-inositol 1,2,3,4,5,6 hexakisphosphate]
(SS)SAMe isomer content stability (percent loss of (SS)SAMe diastereomer) [1]: stable for longer | plasma concentration of active ingredient (SAMe) ([2]; FIG. 1): higher plasma concentration | absorption (AUC 8 hours of SAMe plasma concentration) ([2]; FIG. 2): better absorption | content of the active ingredient (SS)SAMe after the stress test ([3]; 5 days at +55° C., compared with 04B17DS): maintains a higher content | degradation by isomerization after the stress test ([3]; 5 days at +55° C., comparison of AT1003 and 04B17DS): surprisingly lower | (SS) enantiomer (enantiomeric purity, HPLC), final value ([3]; after 5 days at +55° C.): 69.56% | SAMe content (SAMe ion, total of all enantiomers, HPLC), final value ([3]; after 5 days at +55° C.): 30.6% w/w | Purity (% area), final value ([3]; after 5 days at +55° C., HPLC SAMe area/total area): 90.0% area | (SS)SAMe content (active ingredient content), final value ([3]; after 5 days at +55° C., SAMe content x enantiomeric purity, % by weight): 21.28% | (SS) enantiomer (enantiomeric purity, HPLC), starting value ([3]; before incubation at +55° C.): 77.2% | SAMe content (SAMe ion, total of all enantiomers, HPLC), starting value ([3]; before incubation at +55° C.): 34.45% w/w | Purity (% area), starting value ([3]; before incubation at +55° C., HPLC SAMe area/total area): 95.98% area | (SS)SAMe content (active ingredient content), starting value ([3]; before incubation at +55° C., SAMe content x enantiomeric purity, % by weight): 26.59%
